In patent US20240317723A1, “SUBSTITUTED AMINO AZA-HETEROARYL COMPOUNDS AS INHIBITORS OF THE HAEMATOPOIETIC PROGENITOR KINASE 1 (HPK1)” (priority 2021, published 2024):

What was measured:
[1] = target: T1, Recombinant (1-346) HPK1 (h) (Homo sapiens, UniProt Q92918); experiment: HPK1 Human STE Kinase Enzymatic Radiometric Assay; type: biochemical; conditions: [gamma-33P]-ATP, myelin basic protein substrate, read-out: HPK1 IC50 nM Range*
T1 construct: Recombinant (1-346) HPK1 (h) is incubated with 8 mM MOPS pH 7.0
T1 sequence (Q92918 1-346): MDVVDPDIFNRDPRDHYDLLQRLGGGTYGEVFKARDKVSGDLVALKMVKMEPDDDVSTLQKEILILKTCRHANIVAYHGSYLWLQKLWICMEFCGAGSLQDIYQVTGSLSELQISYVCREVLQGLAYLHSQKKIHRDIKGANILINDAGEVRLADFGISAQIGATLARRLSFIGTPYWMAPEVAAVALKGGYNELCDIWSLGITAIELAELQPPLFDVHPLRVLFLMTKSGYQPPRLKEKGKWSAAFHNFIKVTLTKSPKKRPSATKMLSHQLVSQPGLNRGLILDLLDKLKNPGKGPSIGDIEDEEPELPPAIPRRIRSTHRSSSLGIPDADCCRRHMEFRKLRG
Method: (a) HPK1 Human STE Kinase Enzymatic Radiometric Assay
A stock solution of 10 mM of test compound is prepared in DMSO. The compound plate was prepared by 3-fold and 9-point serial dilutions. Recombinant (1-346) HPK1 (h) is incubated with 8 mM MOPS pH 7.0, 0.2 mM EDTA, 0.33 mg/mL myelin basic protein, 10 mM MgAcetate and [gamma-33P]-ATP (specific activity and concentration as required). The reaction is initiated by the addition of the Mg/ATP mix. After incubation for 40 minutes at RT, the reaction is stopped by the addition of phosphoric acid to a concentration of 0.5%. 10 uL of the reaction is then spotted onto a P30 filtermat and washed four times for 4 minutes in 0.425% phosphoric acid and once in methanol prior to drying and scintillation counting. For more details of kinase assay protocols, see: Gao, Y. et. al.; Biochem J. 451 (2): 313-328, 2013.

Lck (h) = Lck (h) (Homo sapiens, UniProt P06239); experiment: Lck Human STE Kinase Enzymatic Radiometric Assay; type: biochemical; conditions: for IC50: radiometric, [gamma-33P]-ATP, Cdc2 peptide substrate, read-out: Lck IC50, nM Range*; for Selectivity: selectivity for inhibition of HPK1 vs Lck
Method: (b) Lck Human STE Kinase Enzymatic Radiometric Assay
Lck (h) is incubated with 50 mM Tris pH 7.5, 0.1 mM EGTA, 0.1 mM Na3VO4, 250 uM KVEKIGEGTYGVVYK (Cdc2 peptide), 10 mM MgAcetate and [gamma-33P]-ATP (specific activity and concentration as required). The reaction is initiated by the addition of the Mg/ATP mix. After incubation for 40 minutes at room temperature, the reaction is stopped by the addition of phosphoric acid to a concentration of 0.5%. 10 uL of the reaction is then spotted onto a P30 filtermat and washed four times for 4 minutes in 0.425% phosphoric acid and once in methanol prior to drying and scintillation counting. For more details on the kinase assay procedures see: Gao, Y. et. al.; Biochem J., 451 (2): 313-328, 2013.
In some embodiments the presence of substituents on monocyclic Cy^2 rings or when Cy^2 is a bicyclic ring (unsubstituted or substituted) provides compounds with improved selectivity for inhibition of HPK1 vs Lck (see, for example, Table 3 and Table 4).

Sequence of Lck (h) (P06239 whole entry): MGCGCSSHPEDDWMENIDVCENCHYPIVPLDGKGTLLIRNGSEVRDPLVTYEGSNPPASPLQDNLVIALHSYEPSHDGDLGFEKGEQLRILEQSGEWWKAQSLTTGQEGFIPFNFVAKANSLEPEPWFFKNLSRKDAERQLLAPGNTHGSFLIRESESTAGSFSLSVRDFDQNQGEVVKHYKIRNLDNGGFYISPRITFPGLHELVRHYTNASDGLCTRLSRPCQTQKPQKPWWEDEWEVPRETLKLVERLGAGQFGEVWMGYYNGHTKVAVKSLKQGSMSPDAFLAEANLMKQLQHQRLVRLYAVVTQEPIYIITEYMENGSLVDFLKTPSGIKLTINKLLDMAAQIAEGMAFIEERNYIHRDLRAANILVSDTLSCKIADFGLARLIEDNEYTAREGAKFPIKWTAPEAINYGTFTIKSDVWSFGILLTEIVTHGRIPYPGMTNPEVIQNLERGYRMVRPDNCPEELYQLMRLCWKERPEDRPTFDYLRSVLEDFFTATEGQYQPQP

Structure (SMILES)	IC50 [1] [nM]	IC50 (Lck (h)) [nM]	Selectivity (Lck (h))
CC(C)C1CCCN(c2ccc(-c3cnc(N)c(-c4ccc5c(c4)CCNC5=O)n3)c(F)c2)C1 (stereo not drawn) [Example I-25, 6-(3-amino-6-(2-fluoro-4-(3-isopropylpiperidin-1-yl)phenyl)pyrazin-2-yl)-3,4-dihydroisoquinolin-1(2H)-one]	6 to 10	21 to 200	
C[C@@H]1CCCN1c1ccc(-c2cnc(N)c(-c3ccc4c(c3)CCNC4=O)n2)c(F)c1 [Example I-43, (R)-6-(3-amino-6-(2-fluoro-4-(2-methylpyrrolidin-1-yl)phenyl)pyrazin-2-yl)-3,4-dihydroisoquinolin-1(2H)-one]	6 to 10	21 to 200	
Nc1ncc(-c2ccc([C@@]34C[C@@H]3CN(CCF)C4)cc2)nc1-c1ccc2c(c1)CCNC2=O [Example I-37, 6-(3-amino-6-(4-((1R,5S)-3-(2-fluoroethyl)-3-azabicyclo[3.1.0]hexan-1-yl)phenyl)pyrazin-2-yl)-3,4-dihydroisoquinolin-1(2H)-one]	0.1 to 5	6 to 10	
Cc1nc2cc(-c3nc(-c4ccc(C5CCOCC5)c(CN(C)C)c4)cnc3N)ccc2c(=O)[nH]1 [II-3, 7-(3-amino-6-(3-((dimethylamino)methyl)-4-(tetrahydro-2H-pyran-4-yl)phenyl)pyrazin-2-yl)-2-methylquinazolin-4(3H)-one]	0.1 to 5	21 to 200	
Cc1[nH]c(=O)c2cc(F)c(-c3nc(-c4ccc(C5CCOCC5)c(CN(C)C)c4)cnc3N)cc2c1F [II-6, 6-(3-amino-6-(3-((dimethylamino)methyl)-4-(tetrahydro-2H-pyran-4-yl)phenyl)pyrazin-2-yl)-4,7-difluoro-3-methylisoquinolin-1(2H)-one]	0.1 to 5	21 to 200	
CC(C)[C@H]1CN(c2ccc(-c3cnc(N)c(-c4ccc5c(c4)CCNC5=O)n3)c(F)c2)CCN1C [Example I-41, (S)-6-(3-amino-6-(2-fluoro-4-(3-isopropyl-4-methylpiperazin-1-yl)phenyl)pyrazin-2-yl)-3,4-dihydroisoquinolin-1(2H)-one]	0.1 to 5	21 to 200	
CC(C)[C@H]1CN(c2ccc(-c3cnc(N)c(-c4ccc5c(c4)CCNC5=O)n3)cc2)CCN1C [Example I-40, (S)-6-(3-amino-6-(4-(3-isopropyl-4-methylpiperazin-1-yl)phenyl)pyrazin-2-yl)-3,4-dihydroisoquinolin-1(2H)-one]	0.1 to 5	6 to 10	
CC(C)[C@H]1CN(c2ccc(-c3cnc(N)c(-c4cc5c(cc4F)C(=O)NCC5)n3)c(F)c2F)CCO1 [Example I-32, (S)-6-(3-amino-6-(2,3-difluoro-4-(2-isopropylmorpholino)phenyl)pyrazin-2-yl)-7-fluoro-3,4-dihydroisoquinolin-1(2H)-one]	0.1 to 5	21 to 200	
CC(C)N1CCN(c2ccc(-c3cnc(N)c(-c4cc5c(cc4F)C(=O)NCC5)n3)cc2)CC1 [Example I-44, 6-(3-amino-6-(4-(4-isopropylpiperazin-1-yl)phenyl)pyrazin-2-yl)-7-fluoro-3,4-dihydroisoquinolin-1(2H)-one]	0.1 to 5	11 to 20	
Nc1ncc(-c2ccc(N3CCC(O)CC3)cc2)nc1-c1ccc2c(c1)CCNC2=O [Example I-6, 6-(3-amino-6-(4-(4-hydroxypiperidin-1-yl)phenyl)pyrazin-2-yl)-3,4-dihydroisoquinolin-1(2H)-one]	0.1 to 5	11 to 20	
CN1C[C@@H]2C[C@]2(c2ccc(-c3cnc(N)c(-c4cc5c(cc4F)C(=O)NCC5)n3)cc2)C1 [Example I-47, 6-(3-amino-6-(4-((1S,5R)-3-methyl-3-azabicyclo[3.1.0]hexan-1-yl)phenyl)pyrazin-2-yl)-7-fluoro-3,4-dihydroisoquinolin-1(2H)-one]	0.1 to 5	11 to 20	
CN([C@H]1CCN(c2ccc(-c3cnc(N)c(-c4ccc5c(c4)CCNC5=O)n3)cc2)C1)S(C)(=O)=O [Example I-10, (S)-N-(1-(4-(5-amino-6-(1-oxo-1,2,3,4-tetrahydroisoquinolin-6-yl)pyrazin-2-yl)phenyl)pyrrolidin-3-yl)-N-methylmethanesulfonamide]	0.1 to 5	11 to 20	
Nc1ncc(-c2ccc([C@]34C[C@H]3CN(C3CC3)C4)cc2)nc1-c1cc2c(cc1F)C(=O)NCC2 [Example I-52, 6-(3-amino-6-(4-((1S,5R)-3-cyclopropyl-3-azabicyclo[3.1.0]hexan-1-yl)phenyl)pyrazin-2-yl)-7-fluoro-3,4-dihydroisoquinolin-1(2H)-one]	0.1 to 5	6 to 10	
CN1CCN(c2ccc(-c3cnc(N)c(-c4ccc5c(c4)CCNC5=O)n3)cc2F)CC1 [Example I-4, 6-(3-amino-6-(3-fluoro-4-(4-methylpiperazin-1-yl)phenyl)pyrazin-2-yl)-3,4-dihydroisoquinolin-1(2H)-one]	0.1 to 5	6 to 10	
CC(C)[C@@H]1CN(c2ccc(-c3cnc(N)c(-c4ccc5c(c4)CCNC5=O)n3)c(F)c2F)CCO1 [Example I-15, (R)-6-(3-amino-6-(2,3-difluoro-4-(2-isopropylmorpholino)phenyl)pyrazin-2-yl)-3,4-dihydroisoquinolin-1(2H)-one]	0.1 to 5	21 to 200	
C[C@@H]1CCCCN1c1ccc(-c2cnc(N)c(-c3ccc4c(c3)CCNC4=O)n2)c(F)c1 [Example I-17, (R)-6-(3-amino-6-(2-fluoro-4-(2-methylpiperidin-1-yl)phenyl)pyrazin-2-yl)-3,4-dihydroisoquinolin-1(2H)-one]	0.1 to 5	21 to 200	
CN(C)C1CCN(c2ccc(-c3cnc(N)c(-c4ccc5c(c4)CCNC5=O)n3)c(F)c2F)C1 (stereo not drawn) [Example I-21, 6-(3-amino-6-(4-(3-(dimethylamino)pyrrolidin-1-yl)-2,3-difluorophenyl)pyrazin-2-yl)-3,4-dihydroisoquinolin-1(2H)-one]	0.1 to 5	11 to 20	
CC(C)[C@H]1CN(c2ccc(-c3cnc(N)c(-c4ccc5c(c4)CCNC5=O)n3)c(F)c2)CCO1 [Example I-14, (S)-6-(3-amino-6-(2-fluoro-4-(2-isopropylmorpholino)phenyl)pyrazin-2-yl)-3,4-dihydroisoquinolin-1(2H)-one]	0.1 to 5	21 to 200	1066
CN1CCN(c2ccc(-c3cnc(N)c(-c4ccc5c(c4)C(C)(C)NC5=O)n3)cc2)CC1 [Example I-2, 5-(3-amino-6-(4-(4-methylpiperazin-1-yl)phenyl)pyrazin-2-yl)-3,3-dimethylisoindolin-1-one]	0.1 to 5	6 to 10	
Nc1ncc(-c2ccc(N3CCN(CC(F)(F)F)CC3)cc2)nc1-c1ccc2c(c1)CCNC2=O [Example I-35, 6-(3-amino-6-(4-(4-(2,2,2-trifluoroethyl)piperazin-1-yl)phenyl)pyrazin-2-yl)-3,4-dihydroisoquinolin-1(2H)-one]	0.1 to 5	11 to 20	
CC(C)N1CCN(c2ccc(-c3cnc(N)c(-c4ccc5c(c4)CCNC5=O)n3)cc2)CC1 [Example I-3, 6-(3-amino-6-(4-(4-isopropylpiperazin-1-yl)phenyl)pyrazin-2-yl)-3,4-dihydroisoquinolin-1(2H)-one]	0.1 to 5	6 to 10	
CC(C)[C@@H]1CN(c2ccc(-c3cnc(N)c(-c4cc5c(cc4F)C(=O)NCC5)n3)c(F)c2F)CCO1 [Example I-31, (R)-6-(3-amino-6-(2,3-difluoro-4-(2-isopropylmorpholino)phenyl)pyrazin-2-yl)-7-fluoro-3,4-dihydroisoquinolin-1(2H)-one]	0.1 to 5	21 to 200	
CC(C)[C@H]1CN(c2ccc(-c3cnc(N)c(-c4ccc5c(c4)CCNC5=O)n3)cc2)CCO1 [Example I-8, (S)-6-(3-amino-6-(4-(2-isopropylmorpholino)phenyl)pyrazin-2-yl)-3,4-dihydroisoquinolin-1(2H)-one]	0.1 to 5	11 to 20	170
